Assays:
YTHDF1 (361-559) = biological target: T1, YTHDF1 (361-559) (Homo sapiens, UniProt Q9BYJ9); test: Hydrogen deuterium exchange mass spectrometry (HDX MS); format: binding; conditions: HDX 10 s to 14400 s; many peptides HDX variation over 5%
T1 construct: GST (N, cleaved yes); made in house; host or cells: E. coli BL21 (DE3)
T1 sequence (Q9BYJ9 with tags, fused parts or gaps): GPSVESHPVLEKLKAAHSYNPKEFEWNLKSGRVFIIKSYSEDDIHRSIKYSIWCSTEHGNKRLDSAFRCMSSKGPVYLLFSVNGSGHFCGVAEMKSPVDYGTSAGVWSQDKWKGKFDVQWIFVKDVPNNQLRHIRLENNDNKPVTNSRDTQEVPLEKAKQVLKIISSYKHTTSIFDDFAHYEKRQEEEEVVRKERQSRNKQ
Description: YTHDF1 (361-559) was incubated with the compound (e.g., SAA) at 4° C. overnight before the measurement. In hydrogen deuterium exchange mass spectrometry (HDX MS), the hydrogen atoms of YTHDF1 (361-559)-apo and YTHDF1 (361-559)-SAA were exchanged with deuterium for 0 s, 10 s, 30 s, 60 s, 1200 s, 3600 s and 14400 s respectively at 10° C. in buffer containing 20 mM Hepes (pH 7.4), 200 mM NaCl and D2O. And the reactions were stopped at 0.5° C. using buffer containing 4 M guanidine hydrochloride, 0.5 M TCEP and 100 mM citric acid (pH 2.3). After deuterium label reaction, the samples were digested at 4° C. by pepsin immobilized on the column in order to obtain peptides of the samples. These peptides were next separated by HPLC and analyzed via mass spectrometry, respectively. HDX MS data was analyzed in HDExaminer software (v2.4.1) and +5% were set as the threshold to pick out those peptides with significant change.
Then, hydrogen deuterium exchange mass spectrometry (HDX MS) experiment was conducted, to determine the binding sites of SAA on YTHDF1.

YTHDF1 mutant W384A = biological target: T2, YTHDF1 mutant W384A (Homo sapiens, UniProt Q9BYJ9, W384A); test: FP assay with YTHDF1 mutant W384A; format: binding
T2 construct: GST (N, cleaved yes); made in house; host or cells: E. coli BL21 (DE3)
Description: (§1) The protein YTHDF1 (361-559) (SEQ ID NO: 2) and its mutants (SEQ ID NOs: 4-13) were cloned into pGEx-6P-1 vector (obtained from YouBio Co, Ltd, Catalog NO: VT1258), and the His-YTHDF1 (361-559) (SEQ ID NO: 3) used in AlphaScreen Assay was cloned into modified pET28a vector (obtained from YouBio Co, Ltd, Catalog NO: VT1207). The vectors were transformed into E. coli BL21 (DE3) cells and cultured at 37° C. When OD value reached 0.6˜0.8, 1 mM Isopropyl-β-D-thiogalactopyranoside was added to overexpress the protein at 16° C. overnight. […] Then, the proteins were further purified via cation exchange (HiTrap SP, GE Healthcare) and finally through a Superdex 75 10/300 column (GE Healthcare). At last, the purified YTHDF1(361-559) and the mutants were kept in buffer which contains 20 mM Hepes (pH 7.4) and 200 mM NaCl. For His-YTHDF1 (361-559), the protein was purified via Ni-NTA chromatography (HisTrap FF, GE Healthcare), followed by cation exchange and Superdex 75 10/300 column in sequence. And the obtained protein was kept in the buffer with the same ingredients.
(§2) All of the YTHDF1 (361-559), the 5′-FAM labeled m^6A-containing mRNA (5′-FAM-[…] (m^6A) CUGUG-3′, SEQ ID NO: 14) and the candidate compounds were diluted with assay buffer (20 mM Hepes (pH 7.4), 50 mM NaCl, 0.01% (v/v) tween 20, 5% (v/v) glycerol). […] At last, the mixtures were measured by Envision Readers (PerkinElmer). […]

YTHDF1 mutant F382A = biological target: T3, YTHDF1 mutant F382A (Homo sapiens, UniProt Q9BYJ9, F382A); test: FP assay with YTHDF1 mutant F382A; format: binding
T3 construct: GST (N, cleaved yes); made in house; host or cells: E. coli BL21 (DE3)
Description: as §1, §2

B16-OVA tumor = B16-OVA tumor growth in Ythdf1F/F and CD11ccreYthdf1F/F mice; format: in vivo, mouse; conditions: 2×10^6 B16-OVA, 10 μM SAA day 9 and day 11
Description: For B6 mice tumor growth, 5×10^5 B16-OVA or 1×10^6 E.G7-OVA tumor cells were inoculated subcutaneously (s.c.) into the flank of mice. Tumor length (a) and width (b) was measured every two days and tumor volume was calculated by the formula ab^2/2. For the inhibitor treatment, 10 μM SAA or DMSO was injected intraperitoneally (i.p.) on day 9 and 11 after tumor inoculation. For other mice model (rag1^−/− and Ythdf1 conditional knockout), times and dose of inhibitor treatment was the same. For α-PD-L1 and SAA combination treatment, 5×10^5 B16-OVA tumor cells were inoculated subcutaneously into the flank of mice. 100 μg α-PD-L1 antibody (clone 10F.9G2) or rat immunoglobulin were administered at day 9 after tumor inoculation. 10 μM SAA or DMSO was administered in the same way on day 9 and 11 after tumor injection.
To determine whether DCs are the major targets of SAA, Ythdf1^F/F and CD11c^creYthdf1^F/F mice were injected subcutaneously with 2×10^6 B16-OVA cells. Then, 10 μM SAA was injected to each mouse on day 9 and day 11, and tumor growth was monitored.

T2 sequence (Q9BYJ9 with tags, fused parts or gaps W384A): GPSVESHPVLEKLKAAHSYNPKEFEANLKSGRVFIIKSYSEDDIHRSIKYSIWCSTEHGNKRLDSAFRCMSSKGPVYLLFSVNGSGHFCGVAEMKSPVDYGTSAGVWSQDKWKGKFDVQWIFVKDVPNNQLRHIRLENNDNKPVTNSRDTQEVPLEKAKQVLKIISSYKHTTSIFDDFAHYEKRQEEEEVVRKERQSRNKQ
T3 sequence (Q9BYJ9 with tags, fused parts or gaps F382A): as the sequence (Q9BYJ9 with tags, fused parts or gaps W384A) above, with F24A, A26W counted along it

Structure (SMILES): O=C(/C=C/c1ccc(O)c(O)c1/C=C/c1ccc(O)c(O)c1)O[C@H](Cc1ccc(O)c(O)c1)C(=O)O [SAA, Salvianolic Acid A]
- conformational change of YTHDF1 on binding (deuterium uptake) (YTHDF1 (361-559)): significant conformational changes
- inhibitory activity against mutant binding to m6A versus wildtype (YTHDF1 mutant W384A): significantly weaker than that against wildtype YTHDF1
- inhibitory activity against mutant binding to m6A versus wildtype (YTHDF1 mutant F382A): significantly weaker than that against wildtype YTHDF1
- tumor growth (B16-OVA tumor; CD11ccreYthdf1F/F mice): no further evident effect of tumor control
- tumor growth (B16-OVA tumor; Ythdf1F/F mice): showed analogous situation as observed in CD11c^creYthdf1^F/F mice
